Laboratory results: BindingDB's records for doi:10.1021/ml200223s (2011)

Experiment: Antagonist activity at CRTH2 receptor in human whole blood assessed as inhibition of PGD2-induced eosinophil shape change incubated for 20 mins prior to PGD2-challenge measured after 10 mins by flow cytometry

IC50: 0.04 µM
Compound: CCCCC(=O)N(Cc1ccc2c(c1)OCCO2)c1cc(F)cc(-c2nnn[nH]2)c1
